Measured values as given in patent US20180066018A1, “CONFORMATIONALLY STABLE ANALOGS OF THE RESPONSE SELECTIVE C5A AGONIST EP67” (Board Of Regents Of The University Of Nebraska, priority 2015, published 2018).
Entries after “also recorded” stand apart in the source; their conditions may differ. Non-standard residues stand in square brackets, D forms with d. No end group written: not given here. NMeL = CN[C@@H](CC(C)C)C(=O)O; Aib = CC(C)(N)C(=O)O

Columns and labels:
[1] = NMR (ROESY) determination of cis/trans conformer populations of the Met-Xaa peptide bond; type: physicochemical; details: in solution
Source text: NMR spectroscopy is the best method for detection of cis/trans prolyl isomerization in a peptide. AAx-Pro cis/trans isomerization (where AAx is any adjacent amino acid residue) is detectable via two resonance frequencies in the NMR spectra per nuclear spin in the proximity of the isomerizing bond. Rotating-Frame NOE Spectroscopy (ROESY) was used to analyze EP67 (150 msec mixing time) in DMSO-d6. Characteristic NOE patterns readily discriminate the resonances arising from the cis and trans conformers allowing for specific assignments of each. Also, the relative populations of each conformer can be determined by integration of the separate peak volumes. Short ^1H-^1H distances (NOEs) between the alpha proton of AAx and the alpha proton of Pro are diagnostic of the cis AAx-Pro peptide bond. On the other hand, an observed NOE between the alpha proton of AAx and the delta protons of Pro are diagnostic of the trans AAx-Pro peptide bond.
where AA and AA′ are adjacent amino acids.
Analog peptides can be analyzed by NMR spectroscopy to verify structure and ascertain cis/trans conformer ratios of the Pro-substituted analogs. Special attention should be paid to the angles formed about α-carbon […]) and carbonyl carbon (Ψ and ω bonds) in the Met residue to the N-terminus of the substituted Pro residues. […]

[2] = system: human monocytes; test: Differentiation/maturation of human monocytes into macrophages in vitro (light microscopy); type: cell-based
Description: To assess the binding of EP67 analogs to APCs and subsequent biological activity on these cells, peptides were assayed for their ability to elicit the activation of monocytes in vitro and to drive the differentiation/maturation of human monocytes into macrophages and subsequently dendritic cells.
Briefly, monocytes were harvested from human peripheral blood mononuclear cells. The human monocytes were incubated at 37 degrees C. for 24 hrs in media the presence of PBS, 100 μg/ml of EP67, 100 μg/ml of EP144, and 100 μg/ml of EP145. The cells were also incubated with for 48 hrs with sEP67 as a control. The cells were then photographed under light microscopy at 20× or 40× magnification. […] Panels A-C & G are at 20× magnification and Panels D-E are at 40× magnification.

[3] = system: C5aR-bearing macrophages vs. C5aR-bearing neutrophils; test: Bioselectivity: cytokine release from macrophages vs. MPO release from neutrophils; type: cell-based; details: antilog[(−Δmacrophage)−(−Δneutrophil)], relative to C5a set at 1
Source text: 2. Potency. Analog potency will be measured by half maximal effective concentration (EC50); i.e., the concentration of the analog to induce a response halfway between baseline and maximum effect. EC50 values for each analog be determined in two separate assays: cytokine release from macrophages and MPO release from neutrophils.
In macrophages, we will measure the release of the TH1 cytokines IL-6, TNFα, and INFγ in accordance to our previously published methods (Morgan et al. Enhancement of In Vivo and In Vitro Immune Functions by a Conformationally Biased, Response-Selective Agonist of Human C5a: Implications for a Novel Adjuvant in Vaccine Design. Vaccine 28:463-469, 2010; Morgan et al. A novel adjuvant for vaccine development in the aged. Vaccine 28:8275-8279, 2010). These cytokines are consistently released in readily measurable amounts from macrophages (as well as monocytes and dendritic cells) and will be representative of what we have seen with EP67 and consistent with the nature of the supporting data presented above. Briefly, macrophages will be incubated in the presence of various concentrations of analogs (10, 50, 100, 200 μg/ml) in standard cell culture conditions for 6, 12, and 24, hrs. […]
3. […] Analog selectivity for cytokine release from macrophages vs. MPO release from neutrophils will be determined by the following equation: […]

[4] = system: human and mouse macrophages; details: cited from earlier work
[5] = system: human and porcine monocytes; details: cited from earlier work
[6] = 100 μg/ml, 37 degrees C., 24 hrs

YSFKDM(Aib)LaR (YSFKDM[Aib]L[dA]R-OH) [EP144, EP67 analog with Pro substituted with 2-aminoisobutyric acid and MeL with Leu]
cis:trans conformer ratio [1]: all-trans | differentiation of human monocytes to macrophages (adhesion to substrate and flattening) [2, 6]: drive the differentiation of human monocytes to macrophages; also recorded: monocytes mature into macrophages

Tyr-Ser-Phe-Lys-Asp-Met-Pro-(MethylLeu)-D-Ala-Arg (YSFKDMP[NMeL][dA]R) [EP67]
differentiation of human monocytes to macrophages (adhesion to substrate and flattening) [2, 6]: monocytes mature into macrophages | selectivity factor for macrophage activity over that of neutrophils [3]: 2951 | release of Th1 cytokines (IL-1β, IL-6, IL-8, IL-12, TNFα, IFNγ) [4]: induces the release of T helper type 1 (Th1) cytokines | release of Th2 cytokines (IL-2, IL-4, IL-5, IL-10) [4]: few T helper type 2 (Th2) cytokines | necrosis and apoptosis of the macrophages/dendritic cells once generated [5]: decreases necrosis and apoptosis | differentiation of monocytes to macrophages and dendritic cells ([5]; human and porcine monocytes): induces the differentiation of human and porcine monocytes to macrophages and dendritic cells

M(MeL)RFPDaYKS (M[NMeL]RFPD[dA]YKS) [sEP67]
differentiation of human monocytes to macrophages (adhesion to substrate and flattening) ([2]; control peptide, 48 hrs): do not exhibit this phenotype

YSFKDM(dmP)(MeL)aR (YSFKDMXLAR; 5,5'-dimethylproline, N-methyl-Leu, D-Ala; MOD_RES (7)..(7) Xaa is 5,5′-dimethylproline; MOD_RES (8)..(8) N-methyl Leu; MOD_RES (9)..(9) D-Ala) [EP145, EP67 analog with Pro substituted with 5,5′-dimethylproline]
differentiation of human monocytes to macrophages (adhesion to substrate and flattening) [2, 6]: drive the differentiation of human monocytes to macrophages; also recorded: monocytes mature into macrophages

B1: C5a: short (74 residues in human) glycoprotein generated by enzymatic cleavage of complement C5 (protein, UniProt P01031 678-751, looked up)
C5a anaphylatoxin: TLQKKIEEIAAKYKHSVVKKCCYDGACVNNDETCEQRAARISLGPRCIKAFTECCVVASQLRANISHKDMQLGR
modifications: C5a anaphylatoxin
notes: short (74 residues in human) glycoprotein generated by enzymatic cleavage of complement C5
selectivity factor for macrophage activity over that of neutrophils [3]: 1
